Results taken from patent publication US8592374B2, “Neurotrophic peptides” (Research Foundation for Mental Hygiene, Inc., priority 2007, dated 2013).

What was measured:
[1] = tested on: GCL of the dentate gyrus; experiment: MAP2 and synaptophysin expression in the GCL (mean pixel intensity), Example 4; type: in vivo, mice; conditions: 30-day treatment
From the text: The following primary antibodies were used for immunohistochemistry: anti-BrdU (1:400; Accurate) a rat monoclonal raised against BrdU; anti-DCX (1:200; Santa Cruz Biotechnology Inc.), a goat polyclonal antibody raised against an 18-amino acid peptide representing residues 384-410 of human doublecortin; anti-NeuN (1:500; Chemicon), a mouse monoclonal antibody raised against purified cell nuclei from mouse brain; Anti-c-Fos (Ab-5) (1:500; Calbiochem), a rabbit polyclonal antibody raised against a synthetic peptide corresponding to amino-acids 4-17 of human c-Fos; SMI52 (1:1000; Sternberger Monoclonals), a mouse monoclonal antibody specific for the mature neuronal marker MAP2a,b; anti-synaptophysin, SYN (1:200; Chemicon), a mouse monoclonal antibody raised against vesicular fraction of bovine brain. […]
For MAP2 and Synaptophysin IR, the entire area of GCL was outlined on every 10th section. Maximum projection images were then generated based on confocal z-stacks, and the antibody staining was quantitated by measuring mean pixel intensity (MPI) with the help of Image-Pro Plus 5.0 software (Media Cybernetics).

[2] = tested on: granule cell layer of the dentate gyrus; experiment: Stereological counts of DCX-, BrdU-NeuN- and c-Fos-NeuN-IR cells in the granule cell layer; type: in vivo, mice
Procedure: (§1) To study neurogenesis, mice received subcutaneous implants of extended release depot pellets containing either CNTF peptides 6a or 6c for 30 days of continuous dosing (Innovative Research of America, Sarasota, Fla.). For control groups, the pellets consisted of the carrier biopolymer only. For implantation, the mice were anesthetized with 2.5% Avertin (0.38 ml for a 25 g animal). Under sterile conditions, the pellets were then subcutaneously implanted along the anterolateral aspect of the right shoulder with a precision trochar (Innovative Research of America). The animals were then transferred to the animal colony after recovery from anesthesia. There were no complications associated with the implantation and treatment. BrdU was given as two daily i.p. injections (100 mg/kg/dose) for five days starting on day 2 of peptide treatment. Neurogenesis was assessed in the dentate gyrus (DG) by counting the number of BrdU-immunoreactive (BrdU-IR), BrdU-DCX-IR and BrdU-NeuN-IR cells in various layers of the DG. Employing principles of unbiased stereology, the optical fractionator method was used to estimate cell counts for the DG.
The following primary antibodies were used for immunohistochemistry: anti-BrdU (1:400; Accurate) a rat monoclonal raised against BrdU; anti-DCX (1:200; Santa Cruz Biotechnology Inc.), a goat polyclonal antibody raised against an 18-amino acid peptide representing residues […] of human doublecortin; anti-NeuN (1:500; Chemicon), a mouse monoclonal antibody raised against purified cell nuclei from mouse brain; Anti-c-Fos (Ab-5) (1:500; Calbiochem), a rabbit polyclonal antibody raised against a synthetic peptide corresponding to amino-acids 4-17 of human c-Fos; SMI52 (1:1000; Sternberger Monoclonals), a mouse monoclonal antibody specific for the mature neuronal marker MAP2a,b; anti-synaptophysin, SYN (1:200; Chemicon), a mouse monoclonal antibody raised against vesicular fraction of bovine brain. The following secondary antibodies were used: Alexa 488-conjugated goat anti-mouse IgG antibody and Alexa 594-conjugated goat anti-rabbit or anti-rat IgG antibody (Molecular Probes); biotinylated anti-rat IgG antibody and Cy5-conjugated goat anti-mouse antibody (Jackson ImmunoResearch).
(§2) Immunohistochemistry was performed as described elsewhere (Kuhn et al., J. Neurosci 17 (15) (1997): 5820-5829). Briefly, every 5th brain section was chosen for quantification of cell number and every 10th section was chosen for staining intensity scanning. Immunohistochemistry was performed on free floating sections. For BrdU immunohistochemistry, epitope retrieval and staining were performed as previously described (Kuhn et al., J. Neurosci 17 (15) (1997): 5820-5829).
For BrdU-DCX-, BrdU-NeuN-, and c-Fos-NeuN-IR cells, only GCL (consisting of iGCL and oGLC described above) was counted using 100× oil objective in every 10th section. To ensure objectivity, z-stacks were collected for each double IR cell and analyzed later by generating maximum projection and 3D constructs.

[3] = tested on: normal adult mice; experiment: Morris Water Maze task, CNTF 6a / CNTF 6c pellets 30 days; type: in vivo
Procedure: For behavioral studies, performance on the Morris Water Maze task was assessed in three groups of 10 mice each (placebo, CNTF6a and CNTF6c) which received peptide treatment for 30 days. To avoid daily stress due to injections, all animals undergoing behavioral studies received subcutaneous implants of CNTF 6a, CNTF 6c or placebo pellets as described above.
All animals for behavioral testing were coded such that the experimentator was blind to the assignment of the animals to specific treatment groups. The Morris Water Maze procedure was performed using a 110 cm diameter circular tank. Before training, the mice were handled gently for 2-3 min/day during 3 days to minimize non-specific stress. Acquisition was started with the submerged (invisible) escape platform in the North-East quadrant and each animal was given 60 sec to find the submerged escape platform. […] Five such acquisition trials were given on each day, for four consecutive days. A test for retention, or probe trial, was given 24 hours later. During the probe trial the mouse was allowed to swim in the tank without the escape platform for 60 seconds. This was followed by second and third probe trials 15 and 30 days from the first probe trial. Each probe trial was immediately followed by a “retraining session” consisting of 5 trials/animal to consolidate learned behavior.
The measures of learning were the time and distance swum to reach the escape platform. For retention during the probe trial, the tank was divided into four imaginary quadrants and a small zone where the escape platform had been (virtual platform). The measures of retention were the percent of time spent and the percent of distance swum in each quadrant, and the number of entries into the platform zone.
Mouse behavior in the Morris Water Maze was monitored by a Samsung Digital Camera (SDC 4304) mounted to the ceiling and tracked and timed by a SMART (Pan Lab/San Diego Instruments) version 2.0.14 software.
Since normal adult mice were used as experimental animals, it was crucial not to miss any effect on memory acquisition and learning that the 30-day peptide treatment might have had. Therefore, a partial training paradigm was used to evaluate learning and memory in the Morris Water Maze. Treated mice were trained on the Morris Water Maze for a total of 20 sessions spanning 4 days after which they were subjected to the first probe trial (P1). Two additional probe trials (P2 and P3) were administered 15 and 30 days after P1. […] Learning was evaluated in terms of latency and distance traveled to reach the invisible escape platform. Retention was measured on probe trials by the percent of time and travel distance in the target quadrant, and the number of crossings of the virtual platform.

[4] = tested on: neural progenitor cells of the dentate gyrus; experiment: Stereological counts of BrdU-IR cells in subregions of the hippocampus, 30-day pellets; type: in vivo, mice
Procedure: All in vivo studies for characterization of peptides (stereology and behavioral analysis) were performed on 8-10-month-old female retired breeders of C57Bl6 background. The animals were acclimatized for at least 3 weeks to exclude occasional pregnant mice from the studies. Mice were group-housed (3 animals per cage) with a 12:12 light:dark cycle and with free access to food and water. All procedures were conducted in accordance with approved protocols from our institutional Animal Welfare Committee.
as §1
At the end of treatment, all animals were anesthetized with an overdose of sodium pentobarbital and transcardially perfused with 0.1 M PBS. After perfusion, the brains were removed from the skull, the left hemisphere was immediately frozen for future biochemical analysis and the right hemisphere was fixed in 4% paraformaldehyde in 0.1 M PBS for at least 24 hours at room temperature. Tissues were then stored in 30% sucrose solutions at 4° C. until sectioning. The brains were sectioned sagittaly on a freezing sliding microtome at […] through the entire hippocampus and the sections were stored in glycol anti-freeze solution (Ethylene glycol, glycerol and 0.1 M PBS in 3:3:4 ratio) at −20° C. till further processing.
as §2
Neurogenesis was assessed in the DG by counting the number of BrdU-immunoreactive (BrdU-IR), BrdU-DCX-IR and BrdU-NeuN-IR cells in various layers of the DG. The granule cell layer (GCL) was subdivided into an inner and outer half (iGCL and oGCL). The iGCL consisted of the subgranular zone (SGZ, defined as a 2-3 nuclei thick layer bordering the GCL) and the inner half of the GCL adjacent to the Hilus (Hil); the outer GCL (oGCL) was defined as the half of the GCL adjacent to the Molecular layer (Mol). A cell in the middle of the GCL was considered part of the iGCL and a cell bordering the GCL in the Mol was included in oGCL counts. […] Hil included the superficial polymorphic layer.
All sections were collected using the random uniform sampling scheme. For BrdU-IR cells, counting was performed on every 5th section using 40× oil objective of a Nikon 90i fluorescent microscope equipped with Nikon C1 three laser confocal system and a Nikon DS U1 digital camera. Employing principles of unbiased stereology, the optical fractionator method was used to estimate cell counts for the DG (West et al., Anat Rec 231 (1991): 482-497). […]

[5] = 30-day treated mice (n = 5/group)
[6] = 30-day pellets, 50 nmol/peptide/animal/day

## Ac-DGGL-NH2 [CNTF 6c]
[1]
  increase of MAP2 expression in the GCL (mean-pixel intensity): 31%
  increase of synaptophysin expression in the GCL (mean-pixel intensity): 26%
[2]; [5]
  Stereological counts (±SEM) of cells expressing DCX in the granule cell layer: 656 ± 43
  Stereological counts (±SEM), NeuN-BrdU/BrdU in the granule cell layer: 39 ± 2
[2]; 30-day treated mice (n = 5/group), basal activity
  Stereological counts (±SEM) of c-fos-NeuN cells in the granule cell layer: 247 ± 23
[2]; 30-day treatment
  increase in BrdU-NeuN-IR cells in the GCL compared with placebo: 62%
  increase of DCX-IR cells in the GCL compared to placebo: ~91%
[2]; 30-day treatment, without behavioral stimulation
  increase in number of mature neurons (NeuN-IR) co-expressing c-fos in the GCL: ~47%
[3]; 30-day pellets, 20 training sessions over 4 days
  learning in the spatial reference memory task (swim latencies): no effect
[3]; P1, P2, P3
  percent time spent in the target quadrant across three probe trials: spent the same percent amount of time in the target quadrant
[4]; 30-day pellets
  BrdU-IR cells in oGCL, Mol or Hil compared to control: no significant differences
[4]; [6]
  increase of BrdU-IR cell counts in the GCL compared to placebo: 31%
  increase of number of BrdU-IR cells in the iGCL compared to control: 45%
[4]; [5]
  Stereological counts (±SEM) of BrdU-IR cells, GCL: 560 ± 24
  Stereological counts (±SEM) of BrdU-IR cells, Hil: 121 ± 16
  Stereological counts (±SEM) of BrdU-IR cells, Mol: 487 ± 28
  Stereological counts (±SEM) of BrdU-IR cells, iGCL: 486 ± 31
  Stereological counts (±SEM) of BrdU-IR cells, oGCL: 74 ± 10
